The test system of experiment [1] is Pseudomonas aeruginosa. Description: Antibacterial activity against Pseudomonas aeruginosa assessed as reduction in microbial growth by measuring zone of inhibition. It is filed as functional.
Experiment [2] relates to Bacillus subtilis. Description: Antibacterial activity against Bacillus subtilis assessed as reduction in microbial growth by measuring zone of inhibition. It is filed as functional.
Experiment [3] concerns Escherichia coli. As to the kind of experiment: Antibacterial activity against Escherichia coli assessed as reduction in microbial growth by measuring zone of inhibition. It is filed as functional.
Experiment [4] deals with Staphylococcus aureus. As to the kind of experiment: Antibacterial activity against Staphylococcus aureus assessed as reduction in microbial growth by measuring zone of inhibition. It is filed as functional.
In experiment [5] the test system is Bacillus subtilis. As to the kind of experiment: Antibacterial activity against Bacillus subtilis assessed as zone of inhibition at 20 mg/ml. In kind it is functional. The conditions noted are these: read-out: IZ.
Experiment [6] deals with Sarcina. As to the kind of experiment: Antibacterial activity against Sarcina assessed as zone of inhibition at 20 mg/ml. It is filed as functional. To be noted: read-out: IZ.
Experiment [7] concerns Staphylococcus aureus. As to the kind of experiment: Antibacterial activity against Staphylococcus aureus assessed as zone of inhibition at 20 mg/ml. The conditions noted are these: read-out: IZ. It is filed as functional.
The subject of experiment [8] is Escherichia coli. As to the kind of experiment: Antibacterial activity against Escherichia coli assessed as zone of inhibition at 20 mg/ml. In kind it is functional. To be noted: read-out: IZ.
Experiment [9] has as its system Serratia marcescens. As to the kind of experiment: Antibacterial activity against Serratia marcescens assessed as zone of inhibition at 20 microg/ml. In kind it is functional. The conditions noted are these: read-out: IZ.
Experiment [10] has as its system Salmonella typhimurium. As to the kind of experiment: Antibacterial activity against Salmonella typhimurium DT104 assessed as reduction in bacterial growth. The conditions noted are these: Salmonella enterica. In kind it is functional, Salmonella enterica subsp. enterica serovar Typhimurium.
In experiment [11] the test system is Escherichia coli. As to the kind of experiment: Antibacterial activity against Escherichia coli ATCC 25922 assessed as bacterial growth inhibition. In kind it is functional.
Experiment [12] has as its system Staphylococcus aureus. Description: Antibacterial activity against Staphylococcus aureus ATCC 3750 assessed as reduction in bacterial growth. In kind it is functional.
The subject of experiment [13] is Bacillus subtilis. As to the kind of experiment: Antibacterial activity against Bacillus subtilis 6633 assessed as reduction in bacterial growth. In kind it is functional.
Experiment [14] has as its system Escherichia coli. Description: Antimicrobial activity against Escherichia coli RCMB 010052 assessed as bacterial growth inhibition by measuring zone of inhibition at 50 ug/ml by agar cup diffusion assay. It is filed as functional. To be noted: read-out: IZ.
Experiment [15] deals with Streptococcus pneumoniae. Description: Antimicrobial activity against Streptococcus […] assessed as bacterial growth inhibition by measuring zone of inhibition at 50 ug/ml by agar cup diffusion assay. It is filed as functional. To be noted: read-out: IZ.
Experiment [16] relates to Bacillus subtilis. As to the kind of experiment: Antimicrobial activity against Bacillus subtilis RCMB 010069 assessed as bacterial growth inhibition by measuring zone of inhibition at 50 ug/ml by agar cup diffusion assay. To be noted: read-out: IZ. It is filed as functional.
Experiment [17] relates to Staphylococcus aureus. Description: Antibacterial activity against Staphylococcus aureus assessed as bacterial growth inhibition by measuring zone of inhibition at 50 ug/ml by agar cup diffusion assay. It is filed as functional. The conditions noted are these: read-out: IZ.
In experiment [18] the test system is Escherichia coli. Description: Antibacterial activity against Escherichia coli assessed as bacterial growth inhibition by measuring zone of inhibition at 50 ug/ml by agar cup diffusion assay. It is filed as functional. The conditions noted are these: read-out: IZ.

Converted amounts (≈) assume the structure as drawn.

Regarding `Oc1ccccc1/C=N/Nc1nc(SCc2ccccc2)ncc1I`, the “inhibition zone (IZ)” value stood at 18 mm in experiment [1], 13 mm in experiment [2], 7 mm in experiment [3] and 15 mm in experiment [4].
Regarding `CSc1c(C#N)c(N)nc2c(/N=N/c3ccc(S(=O)(=O)Nc4ncc(C)cn4)cc3)c(=O)[nH]n12`, the zone of inhibition at 20000 µg/mL in [5] was 9 mm; in [6], 12 mm; in experiment [7] it was 9 mm; in experiment [8], 12 mm. In addition, the zone of inhibition at 20 µg/mL in experiment [9] was found to be 15 mm.
With `Ic1cnc(SCc2ccccc2)nc1N/N=C/c1c(-c2ccccc2)c(-c2ccccc2)nn1-c1ccccc1`, the “inhibition zone (IZ)” value in experiment [1] came to 16 mm; in experiment [2] it was 20 mm; in [3], 10 mm; in experiment [4], 18 mm.
The MIC is the lowest concentration found to suppress growth. Regarding `Cc1nc2scc(-c3ccco3)c2c(=O)n1/N=C/c1ccc(F)cc1F`, the MIC is 6 µg/mL (≈ 16.2 µM) in experiment [10], 5 µg/mL (≈ 13.5 µM) in experiment [11], 5 µg/mL (≈ 13.5 µM) in experiment [12] and 4 µg/mL (≈ 10.8 µM) in [13].
As to `CN[C@@H]1[C@H](O[C@H]2[C@H](O[C@H]3[C@H](O)[C@@H](O)[C@H](N=C(N)N)[C@@H](O)[C@@H]3N=C(N)N)O[C@@H](C)[C@]2(O)C=O)O[C@@H](CO)[C@H](O)[C@H]1O` [STREPTOMYCIN], the zone of inhibition at 20000 µg/mL in [5], in [6], in [7] and in [8] was 18 mm throughout. In addition, the zone of inhibition at 20 µg/mL in [9] was determined as 18 mm.
`Cc1nc2scc(-c3ccco3)c2c(=O)n1NC(=O)c1ccc(F)cc1F`: the MIC in experiment [10] amounted to 5 µg/mL (≈ 12.9 µM); in experiment [11], 4 µg/mL (≈ 10.3 µM); in experiment [12], 4 µg/mL (≈ 10.3 µM); in experiment [13], 5 µg/mL (≈ 12.9 µM).
For `O=C1OC(c2ccc(C(=O)O)cc2)N=C1/C=C/c1ccc(C(=O)c2cccs2)cc1` (stereo not drawn), the values for the zone of inhibition at 50 µg/mL in experiment [14], in [15] and in experiment [16] were 17.9 mm, 18.6 mm and 22.3 mm, respectively.
`COc1ccc(-c2c(C(=O)c3ccc(C(=O)O)cc3)c(N)nc3nc4ccccc4n23)cc1`: the values for the zone of inhibition at 50 µg/mL in [14], in experiment [15] and in experiment [16] were 17.9 mm, 19.3 mm and 24.7 mm, respectively.
Consider `O=C1OC(c2ccc(C(=O)O)cc2)N=C1/C=C/c1ccc(C(=O)c2ccc(Cl)cc2)cc1` (stereo not drawn), for which the zone of inhibition at 50 µg/mL in experiment [14] is 18.2 mm; in experiment [15], 21.8 mm; in experiment [16], 24.3 mm.
For `Cc1ccc(Nc2c(C#N)c(N)nc3c(/N=N/c4ccc(S(=O)(=O)Nc5ncc(C)cn5)cc4)c(=O)[nH]n23)cc1`, the zone of inhibition at 20000 µg/mL in [5] came out at 9 mm; in experiment [6], 15 mm; in experiment [7], 12 mm; in experiment [8], 12 mm. For the same compound, the zone of inhibition at 20 µg/mL in [9] worked out at 15 mm.
On to `Cc1nc2scc(-c3ccco3)c2c(=O)n1NC(=O)c1ccc([N+](=O)[O-])cc1`, for which the MIC in experiment [10] was 5 µg/mL (≈ 12.6 µM); in [11], 7 µg/mL (≈ 17.7 µM); in experiment [12], 6 µg/mL (≈ 15.1 µM); in [13] it was 5 µg/mL (≈ 12.6 µM).
Turning to `Cc1nc2scc(-c3ccco3)c2c(=O)n1/N=C/c1ccc([N+](=O)[O-])cc1`, the MIC came out at 12 µg/mL (≈ 31.5 µM) in experiment [10], 12 µg/mL (≈ 31.5 µM) in experiment [11], 11 µg/mL (≈ 28.9 µM) in experiment [12] and 11 µg/mL (≈ 28.9 µM) in experiment [13].
For the compound `Nc1ncccc1/C=N/Nc1nc(SCc2ccccc2)ncc1I`, the “inhibition zone (IZ)” value is 18 mm in [1], 17 mm in [2], 7 mm in [3] and 18 mm in [4].
In the case of `O=C1OC(c2ccc(C(=O)O)cc2)N=C1/C=C/c1ccc(C(=O)c2ccco2)cc1` (stereo not drawn), the results for the zone of inhibition at 50 µg/mL in [14], in experiment [15] and in experiment [16] were 16.7 mm, 19.3 mm and 21.2 mm, respectively.
Take `Cc1ccc(-c2c(C(=O)c3ccc(C(=O)O)cc3)c(N)nc3ncnn23)cc1`: the figures for the zone of inhibition at 50 µg/mL in experiment [14], in experiment [15] and in experiment [16] were 16.6 mm, 20.7 mm and 26.8 mm, respectively.
Take `COc1ccc(Nc2c(C#N)c(N)nc3c(/N=N/c4ccc(S(=O)(=O)Nc5ncccn5)cc4)c(=O)[nH]n23)cc1`: the zone of inhibition at 20000 µg/mL was determined as 9 mm in experiment [5], 15 mm in experiment [6], 12 mm in [7] and 15 mm in experiment [8]. The zone of inhibition at 20 µg/mL in experiment [9] stood at 15 mm.
As for `O=C1OC(c2ccc(C(=O)O)cc2)N=C1/C=C/c1ccc(C(=O)c2ccccc2)cc1` (stereo not drawn), the figures for the zone of inhibition at 50 µg/mL in experiment [14], in [15] and in experiment [16] were 17 mm, 19.3 mm and 23.7 mm, respectively.
Consider `Clc1ccc(/C=N/Nc2nc(SCc3ccccc3)ncc2I)cc1`, for which the “inhibition zone (IZ)” value is recorded as 18 mm in [1], 10 mm in [2], 8 mm in [3] and 10 mm in experiment [4].
As to `Cc1cnc(NS(=O)(=O)c2ccc(/N=N/c3c(=O)[nH]n4c(NN)c(C#N)c(N)nc34)cc2)nc1`, the zone of inhibition at 20000 µg/mL in experiment [5] worked out at 9 mm; in experiment [6], 12 mm; in experiment [7], 9 mm; in [8], 12 mm. Further, the zone of inhibition at 20 µg/mL in experiment [9] was found to be 15 mm.
As to `Cc1nc2scc(-c3ccco3)c2c(=O)n1/N=C/c1ccc(Cl)cc1Cl`, the MIC in [10] amounted to 5 µg/mL (≈ 12.4 µM); in experiment [11], 6 µg/mL (≈ 14.8 µM); in [12], 4 µg/mL (≈ 9.89 µM); in experiment [13], 4 µg/mL (≈ 9.89 µM).
Turning to `Nc1nc2ncnn2c(-c2ccc(Br)cc2)c1C(=O)c1ccc(C(=O)O)cc1`, the zone of inhibition at 50 µg/mL is 18.3 mm in experiment [14], 21.3 mm in experiment [15] and 28.9 mm in experiment [16].
In the case of `O=[N+]([O-])c1ccc(Nc2nc(SCc3ccccc3)ncc2I)cc1`, the “inhibition zone (IZ)” value in experiment [1] turned out to be 10 mm; in experiment [2], 14 mm; in experiment [3], 5 mm; in experiment [4] it was 16 mm.
Take `COc1cc(-c2cc(-c3cc(F)c(Cl)cc3Cl)nc(NC(=O)CSc3nnc(-c4cccnc4N4CCOCC4)o3)n2)cc(OC)c1OC`: the results for the zone of inhibition at 50 µg/mL in experiment [17] and in experiment [18] were 9 mm and 14 mm, respectively.
As to `CSc1c(C#N)c(N)nc2c(/N=N/c3ccc(S(=O)(=O)Nc4ncccn4)cc3)c(=O)[nH]n12`, the zone of inhibition at 20000 µg/mL was determined as 9 mm in experiment [5], 12 mm in [6], 9 mm in [7] and 15 mm in experiment [8]. The zone of inhibition at 20 µg/mL in experiment [9] is 15 mm.
As for `COc1ccc(/C=N/Nc2nc(SCc3ccccc3)ncc2I)cc1O`, the “inhibition zone (IZ)” value stood at 19 mm in [1], 13 mm in experiment [2], 4 mm in experiment [3] and 12 mm in experiment [4].
In the case of `Cc1nc2scc(-c3ccco3)c2c(=O)n1NC(=O)c1ccc(Cl)cc1Cl`, the MIC in [10] worked out at 6 µg/mL (≈ 14.3 µM); in experiment [11], 6 µg/mL (≈ 14.3 µM); in experiment [12], 5 µg/mL (≈ 11.9 µM); in experiment [13], 4 µg/mL (≈ 9.52 µM).
In the case of `O=C(CSc1nnc(-c2cccnc2N2CCOCC2)o1)Nc1nc(-c2ccc(F)cc2)cc(-c2cc(F)c(Cl)cc2Cl)n1`, the zone of inhibition at 50 µg/mL in experiment [17] and in experiment [18] was 11 mm in each case.

(Values after ChEMBL document CHEMBL5532639, “Heterocyclic pyrimidine derivatives as promising antibacterial agents” (Eur J Med Chem, 2023).)
